Assay results from US9434687B2, “Detection of synthetic cannabinoids” (priority 2011, dated 2016).
Counter-ions that a name gives are not always drawn.

What was measured:
Format in all cases: binding, sheep
[1] = test system: IgG fraction of antiserum raised to Immunogen IV; conditions: Antibody to Immunogen IV; cross-reactants at 100 ng/ml; 1000 ng/ml; standard JWH-018
Procedure: (§1) An aqueous solution of each immunogen was formulated with Freund's Complete Adjuvant (FCA) to form an emulsion consisting of 2 mg/ml*immunogen in 50% (v/v) FCA. Three sheep were immunised with this emulsion (1° immunisation), 0.25 ml being intramuscularly injected at each of four sites in the flank of each animal. Subsequent immunizations (boosts) contained 1 mg/ml*immunogen. All boosts were emulsified in 50% (v/v) Freund's Incomplete Adjuvant (FIA) and were administered in the same manner as the 1° immunisation, at monthly intervals. Blood sampling took place 7 to 14 days after each boost. *The general procedure for immunogen administration is outlined above, however, it was necessary to deviate from this protocol in some cases, due to reduced immunogen concentrations (Immunogens II, IV, VII and VIII) and/or amount available (Immunogen VIII). Any deviations from the protocol described are outlined in Table 5 below and highlighted in bold.
(§2) The wells of an enhanced binding 96 well polystyrene microtiter plate were coated with IgG fraction of antiserum raised to Immunogen I or II, diluted in 10 mM Tris, pH8.5 (125 μl/well). The appropriate antibody coating dilution was determined using standard ELISA checkerboard techniques. The plate was incubated overnight at 4° C., washed 4 times over 10 minutes with Tris buffered saline containing Tween 20 (TBST) and tapped dry. Standard solutions (JWH-018 for Immunogens I and II) were applied at 0, 0.625, 1.25, 2.5, 5, 10, 20 and 40 ng/ml and 50 μl of each was added to the appropriate wells. 75 μl of conjugate (appropriate hapten-HRP) diluted in Tris buffer (pH 7.2) containing EDTA, D-mannitol, sucrose, thimerosal and BSA, was added to each of the wells. The appropriate dilution of conjugate was also determined using standard ELISA checkerboard techniques. The plate was incubated at 25° C. for 1 hour. Excess unbound conjugate was removed by washing 6 times over a 10 minute period with TBST. 125 μl of tetramethylbenzidine (TMB) substrate solution was added to each well of the plate that was then incubated for 20 minutes in the dark at room temperature. The reaction was terminated by addition of 125 μl 0.2M H2SO4 to each well. The absorbance was then measured at 450 nm using a microtiter plate reader. The data are inputted to a computer program called ‘KC Junior’. It is a 4 parameter fit curve and allow the calculation of concentrations between the standard runs. This program is used to calculate the IC50s by dividing the 0 ng/ml OD value by 2 and obtaining the concentration value from the curve for this OD.
(§3) In a similar manner to that described above, the wells of a 96-well microtiter plate were coated with the IgG fraction of the antiserum raised to Immunogens IV, VII or VIII. Standard solutions (JWH-018 for Immunogens IV and VIII, JWH-015 for Immunogen VII) were prepared in TBST at 0, 1.25, 2.5, 5, 10, 20, 40 and 80 ng/ml and conjugate was employed as detection reagent.
(§4) The data set out in Tables 7-10 are generated using antibodies raised against the indicated Immunogens in a competitive binding assay with the indicated tracers, using the indicated standards
(§5) In order to determine the specificity of the competitive ELISAs, standard solutions of a range of structurally similar synthetic cannabinoids and their metabolites were prepared in TBST.
(§6) Using the calibration curves generated and employing a single level of cross reactants, these were used to determine the cross-reactivity of each immunoassay with these substances. These are the standards used for the IC50 and cross-reactivity data generation: […]

[2] = test system: IgG fraction of antiserum raised to Immunogen VII; conditions: Antibody to Immunogen VII; cross-reactants at 100 ng/ml; 1000 ng/ml; standard JWH-015
Procedure: as §1, §2, §3, §4, §5, §6

[3] = test system: IgG fraction of antiserum raised to Immunogen VIII; conditions: Antibody to Immunogen VIII; cross-reactants at 100 ng/ml; 1000 ng/ml; standard JWH-018
Procedure: as §1, §2, §3, §4, §5, §6

[4] = test system: IgG fraction of antiserum raised to Immunogen I; conditions: Antibody to Immunogen I; cross-reactants at 100 ng/ml; 1000 ng/ml; standard JWH-018
Procedure: as §1, §2
In a similar manner to that described above, the wells of a 96-well microtiter plate were coated with the IgG fraction of the antiserum raised to Immunogens I or II. Standard solutions (JWH-018 for Immunogen I and II) were applied at 0, 0.625, 1.25, 2.5, 5, 10, 20 and 40 ng/ml and conjugate was employed as detection reagent.
as §4, §5, §6

Row | Compound | % B/B0 [1] [%] | % B/B0 [2] [%] | % B/B0 [3] [%] | % B/B0 [4] [%]
1 | CCCCCn1cc(C(=O)c2cccc3ccc(CC)cc23)c2ccccc21 [JWH-210 7-ethylnaphthyl isomer] | 27.07 | 100.55 | 50.90 | 73.11
2 | COc1ccccc1CC(=O)c1cn(CCCCCO)c2ccccc12 [JWH 250 N-(5-hydroxypentyl) metabolite] | 76.22 | 96.13 | 42.79 | 75.47
3 | COc1ccc(C(=O)c2c(C)n(CCN3CCOCC3)c3ccccc23)cc1 [WIN-48,098, Pravadoline] | 91.64 | 92.41 | 97.90 | 90.05
4 | COc1ccc(CC(=O)c2cn(CCC3CCCCC3)c3ccccc23)cc1 [RCS-8 4-methoxy isomer] | 90.78 | 98.21 | 100.72 | 94.94
5 | COc1cccc(CC(=O)c2cn(CCC3CCCCC3)c3ccccc23)c1 [RCS-8 3-methoxy isomer] | 89.43 | 93.73 | 83.62 | 93.24
6 | CCCCn1cc(C(=O)c2ccc(OC)cc2)c2ccccc21 [RCS-4-C4 homologue] | 27.17 | 100.20 | 9.54 | 76.27
7 | O=C(c1ccc(I)cc1)c1cn(CCCCCF)c2ccccc12 [AM-694 4-iodo isomer] | 27.66 | 98.71 | 13.42 | 73.79
8 | CCc1ccc(C(=O)c2cn(CCCCCC(=O)O)c3ccccc23)c2ccccc12 [JWH-210 N-(5-carboxypentyl) metabolite] | 85.29 | 96.07 | 96.27 | 76.77
9 | NCCc1c[nH]c2ccc(O)cc12 [Serotonin HCl] | 95.40 | 99.83 | 100.36 | 99.65
10 | COc1ccc(C(=O)c2cn(CCCCCO)c3ccccc23)c2ccccc12 [JWH-081 N-(5-hydroxypentyl) metabolite] | 26.31 | 89.31 | 47.16 | 61.86
11 | CCCCCn1cc(C(=O)Cc2cccc(C)c2)c2ccccc21 [JWH 251 3-methylphenyl isomer] | 51.15 | 99.32 | 8.97 | 85.90
12 | CCCCCC(C)n1c(C)c(C(=O)c2cccc3ccccc23)c2ccccc21 (centres unmarked) [JWH-011] | 99.19 | 57.43 | 97.49 | 62.13
13 | (+)-CP 55,940 | 91.38 | 97.15 | 95.12 | 103.25
14 | CCCCCn1cc(C(=O)c2ccc3ccccc3c2)c2ccccc21 [JWH 018 2′-naphthyl isomer] | 28.13 | 94.98 | 14.94 | 75.90
15 | CCCCCCC(C)(C)c1cc(O)c2c(c1)OC(C)(C)[C@@H]1CC=C(CO)C[C@@H]21 [HU-210] | 92.53 | 100.39 | 93.42 | 102.57
16 | CCCCCn1cc(C(=O)C23CC4CC(CC(C4)C2)C3)c2ccccc21 [JWH 018 adamantyl analog] | 99.02 | 94.48 | 10.97 | 95.94
17 | CCCCCn1cc(C(=O)Cc2ccccc2C)c2ccccc21 [JWH-251] | 42.02 | 96.74 | 9.12 | 68.01
18 | (−)-CP 55,940 | 93.02 | 101.15 | 97.58 | 98.27
19 | CCCCn1c(O)c(C(=O)c2cccc3ccccc23)c2ccccc21 [2-OH JWH-073, JWH-073 2-hydroxyindole metabolite] | 89.63 | 92.65 | 93.42 | 89.62
20 | CCCCCn1cc(C(=O)c2ccc(CCC)c3ccccc23)c2ccccc21 [JWH-182] | 12.83 | 98.40 | 30.65 | 107.08
21 | COc1ccccc1CC(=O)c1cn(CCC2CCCCC2)c2ccccc12 [RCS-8] | 85.50 | 94.57 | 88.79 | 82.65
22 | CN1CCCCC1Cn1cc(C(=O)c2cc([N+](=O)[O-])ccc2I)c2ccccc21 (centres unmarked) [AM-1241] | 91.38 | 94.96 | 102.46 | 85.61
23 | CCCCCn1cc(C(=O)Cc2ccc(Cl)cc2)c2ccccc21 [JWH-206, JWH-203 4-chloro isomer] | 65.63 | 97.17 | 10.55 | 75.96
24 | CCCCCn1cc(C(=O)c2ccc(CC)c3ccccc23)c2ccccc21 [JWH-210] | 5.53 | 96.62 | 16.87 | 91.18
25 | COc1ccc(C(=O)c2cn(CCCC(C)O)c3ccccc23)cc1 (centres unmarked) [RCS-4 N-(4-hydroxypentyl) metabolite] | 59.16 | 95.72 | 8.89 | 65.71
26 | CCCCCn1c(O)c(C(=O)c2cccc3ccccc23)c2ccccc21 [2-OH JWH-018, JWH-018 2-hydroxyindole metabolite] | 100.14 | 95.08 | 101.36 | 95.37
